Source: patent publication US12163169B2, “Inducible chimeric cytokine receptors” (Allogene Therapeutics, Inc., priority 2018, dated 2024)
“Also recorded” adds a separate entry of the source. Each block holds one molecule with its values, some of them ahead of it. Ends that are not written are not given here.

Key:
[1] = test system: BCMA(1-54), TACI(1-165) and BAFFR(1-78) ectodomain chimeric cytokine receptors; test: HEK293T Stat reporter assay of TNFR2 superfamily ectodomain receptors with soluble BAFF trimers (Example 14); type: cell-based; details: 5 hours post-treatment
Text: (§1) To test if the panel of ligand inducers and ectodomains can be further extended beyond the AP1903-FKBP(F36V) pairing, we tested signaling in response to other multimeric ligand inducers. As the Tumor Necrosis Family (TNF) superfamily of ligands are trimers, they engage their respective receptors in a multimeric fashion. Therefore, we fused ectodomains derived from the TNFR2 superfamily receptors, such as BCMA(1-54), TACI(1-165) and BAFFR(1-78), to the transmembrane and signaling domains of our chimeric cytokine receptors, and tested signaling in response to soluble trimeric ligand. Briefly, 20,000 HEK293T cells were plated into each well of a poly-L-lysine-coated 96-well flat-bottom plate and allowed to adhere overnight. The chimeric cytokine receptor (2.5 ng), a Stat response element that drives Firefly Luciferase (100 ng; Promega) and Renilla Luciferase control reporter vector (1 ng; Promega) were mixed in a final volume of 5 uL in Opti-MEM (Gibco) (“DNA mix”). 0.3 uL Lipofectamine 2000 (Invitrogen) in 5 uL Opti-MEM was incubated at room temperature for 5 minutes and then added to the DNA mix. […] 24 hours after transfection, cells were either left untreated, or treated with soluble BAFF or APRIL trimers diluted in serum-free media, and Stat reporter activity was determined 5 hours post-treatment using the Dual-Glo Luciferase Assay System (Promega). […]

[2] = molecular target: T1, BCMA ectodomain cytokine receptor (Homo sapiens, UniProt Q02223); test: HEK293T Stat reporter assay of BCMA ectodomain cytokine receptor with soluble APRIL trimers (Example 14); type: cell-based; details: 5 hours post-treatment; FIGS. 37C-37D
T1 construct: such as BCMA(1-54), TACI(1-165) and BAFFR(1-78); expressed in transfected cells; host or cells: HEK293T
T1 sequence (Q02223 1-54): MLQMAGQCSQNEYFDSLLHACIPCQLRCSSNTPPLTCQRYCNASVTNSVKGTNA
Text: as §1

[3] = molecular target: FKBP12 containing the F36V mutation (Homo sapiens, UniProt P62942, F37V); details: literature (Jemal 2008; Scher and Kelly 1993); cited from earlier work
Sequence of FKBP12 containing the F36V mutation (P62942 2-108 F37V): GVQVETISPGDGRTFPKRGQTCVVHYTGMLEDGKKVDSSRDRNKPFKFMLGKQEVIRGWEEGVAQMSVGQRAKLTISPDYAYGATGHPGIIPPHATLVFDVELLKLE

CAR T cells [4] = test: Target-independent AP1903-driven CAR T cell expansion, 2-week culture (Example 11); type: cell-based, human; details: FKBP switch CAR T cells, IL7R(316-459)/IL12Rb2(775-825) cytotails; reference IL-7 and IL-12p70 10 ng/mL each; 2 weeks
Experimental: Control CAR T cells or FKBP switch CAR T cells bearing IL7R(316-459)/IL12Rb2(775-825) cytotails were cultured with the indicated concentrations of AP1903, and in the absence of exogenous cytokines (unless specified in the case of positive controls) or target cells for 2 weeks. As a positive control, CAR T cells were alternatively supplemented with exogenous recombinant IL-7 (10 ng/mL; Miltenyi) and IL-12p70 (10 ng/mL; Biolegend) to mimic the dual IL-7R/IL12Rb2 outputs transmitted by FKBP switch activation. At the end of the 2-week culture, the number and quality of surviving CAR T cells were determined. Briefly, duplicate samples from each culture condition cells were harvested and stained using the Zombie NIR Fixable Viability Kit (Biolegend). Samples were washed with PBS, Fc blocked, then stained with the following antibody cocktail diluted in PBS+1% BSA: BUV395-conjugated anti-human CD3, BV510-conjugated anti-human CD8, BV605-conjugated human CD4 and FITC-conjugated v5 tag (for CAR detection), PE/Cy7-conjugated anti-human CD62L (Biolegend) and BV785-conjugated anti-human CD45RO (Biolegend). Finally, samples were washed in PBS and cell pellets were resuspended in 130 uL PBS+1% BSA containing 123count eBeads counting beads (Thermo Fisher) (10 uL counting beads in 120 uL PBS+1% BSA) prior to FACS analysis.

STAT5 = STAT5 luciferase reporter assay of small-molecule inducible Epo receptors in HEK293T cells (Example 2); type: cell-based; details: AP1903 added vs no ligand, FIG. 4
Text: According to the construct name, receptors contain a membrane-targeting motif (CD8 signal sequence (CD8 SS) or myristoyl), a dimerization domain (FKBP(F36V) or mutants thereof), a portion of the EpoR that contains a transmembrane (EpoR(237-272)), a JAK2 binding motif (EpoR(273-338)), and/or a tyrosine effector domain (EpoR(339-508)). Constructs may also include epitope tags (Myc or V5) for western blot or flow analyses.
Vectors encoding the inducible chimeric cytokine receptors were transfected into HEK293T cells along with a luciferase reporter for the STAT5 transcription factor (Promega E4651). The reporter vector consists of a firefly luficerase expressed under the control of a STAT5 responsive DNA element. Upon addition of erythropoietin (Epo), the erythropoietin receptor (EpoR) activates the JAK2 kinase which then phosphorylates tyrosines on the EpoR cytotail to generate binding sites for STAT5. […] Epo was added to samples with cells transfected with EpoR, and AP1903 was added to the samples with cells transfected with fusions of the EpoR to FKBP. No Epo or AP1903 was added to samples to assess baseline signaling. In FIG. 4, “ligand” is either Epo or AP1903.

CAR T cells [5] = test: Cytokine release (MSD assay) on Day 5 of the AP1903-driven growth assay (Example 16B); type: cell-based; details: 500 ng/ml of AP1903; FIGS. 42A-42B
Experimental: To test whether different cytotail outputs influenced the memory differentiation and long-term survival of CAR T cells, we performed an AP1903-driven growth assay. CAR T cells bearing the indicated chimeric receptors were thawed and the percentages of CAR+ cells were normalized to the sample with the lowest transduction efficiency (i.e. 20% CAR+) by adding non-transduced T cells. Cells were either left untreated, or treated with 500 ng/ml of AP1903, and in the absence of exogenous cytokines (unless specified in the case of positive controls) or target cells for 2 weeks. […] On Day 5 of the AP1903-driven growth assay, supernatents were sampled for the analysis of cytokine release using the MSD assay (Meso Scale Discovery). At the end of the 2-week culture, the memory and exhaustion phenotypes of surviving CAR T cells were determined. Briefly, duplicate samples from each culture condition cells were harvested and stained using the Zombie NIR Fixable Viability Kit (Biolegend). […]

STAT4 = test: HEK293T transcription factor reporter assay of cytotails (Example 16A), Stat4; type: cell-based; details: 1 ug/mL AP1903, 6 hours; FIG. 39B
Experimental: To test the signaling pathways activated by different cytotails, we utilized a HEK293T cell reporter assay. Briefly, 20,000 HEK293T cells were plated into each well of a poly-L-lysine-coated 96-well flat-bottom plate and allowed to adhere overnight. An inducible cytokine receptor (2.5 ng), the respective transcription factor response element that drives Firefly Luciferase (100 ng; Promega) and a Renilla Luciferase control reporter vector (1 ng; Promega) were mixed in a final volume of 5 uL in Opti-MEM (Gibco) (“DNA mix”). 0.3 uL Lipofectamine 2000 (Invitrogen) in 5 uL Opti-MEM was incubated at room temperature for 5 minutes and then added to the DNA mix. The mixture was incubated at room temperature for 20 minutes and the total volume of 10 uL was added to each well containing HEK-293T. As a negative control, the FKBP ectodomain was coupled to the transmembrane and short intracellular region of TpoR(478-528) that lacked the JAK-binding domain and cytotail (i.e. TpoR CTRL). As a comparison, the FKBP ectodomain was coupled to the MyD88/CD40 signaling domains (henceforth referred to as “FKBP-MyD88-CD40”). 24 hours after transfection, cells were either left untreated, or treated with 1 ug/mL AP1903 (Apex Bio) diluted in serum-free media. 6 hours after AP1903 treatment, reporter activity was determined using the Dual-Glo Luciferase Assay System (Promega). […]

[6] = test system: U87KO-EGFRvIII-nucRFP target cells; test: 4-day in vitro cytotoxicity assay against U87KO-EGFRvIII-nucRFP target cells (Example 16B); type: cell-based; details: EGFRvIII CAR (2173 scFv); E:T 1:8; 500 ng/ml AP1903; 4 days; FIGS. 40A-40F
Experimental: (§2) To test whether different cytotail outputs influenced the effector function of CAR T cells, we performed a 4-day in vitro cytotoxicity assay. Briefly, 30,000 U87KO-EGFRvIII-nucRFP target cells were seeded and allowed to attach in 96-well plates with black walls and flat clear bottom in 50 uL RPMI containing 10% FBS (Hyclone), non-essential amino acids, sodium pyruvate and 20-25 mM HEPES. U87KO-EGFRvIII is a kind gift from Cellectis SA (Paris, France). U87KO-EGFRvIII was derived from the parental cell line, U87MG (ATCC), by first knocking out endogenous wildtype EGFR using Transcription Activator-Like Effector Nucleases (TALEN), and then stably overexpressing full-length human EGFRvIII via lentiviral transduction. To facilitate target cell imaging via the IncuCyte Live Cell Analysis Imaging System, U87KO-EGFRvIII-nucRFP target cells were derived from U87KO-EGFRvIII by a second lentiviral transduction with IncuCyte NucLight Red Lentivirus Reagent (Sartorius). EGFRvIII CAR (2173 scFv) T cells bearing an FKBP switch with the respective cytotails were thawed and added to plated target cells at an Effector:Target (E:T) ratio of 1:8. As a comparison, CAR T cells coexpressing FKBP-MyD88-CD40 were included. […] The number of live target cells at each timepoint was determined by enumerating the number of live nuclearRFP+ cells using the Incucyte Live Cell Analysis Imaging System. […]

CAR T cells [7] = test: Cytokine release (MSD assay) at the end of the 4-day cytotoxicity assay (Example 16B); type: cell-based
Experimental: as §2

CAR T cells [8] = test: AP1903-driven growth assay: enrichment, memory and exhaustion phenotype of CAR T cells (Example 16B); type: cell-based; details: 2 weeks; exogenous recombinant cytokine 10 ng/mL; 20% CAR+ seeded; FIG. 43
Experimental: To test whether different cytotail outputs influenced the memory differentiation and long-term survival of CAR T cells, we performed an AP1903-driven growth assay. CAR T cells bearing the indicated chimeric receptors were thawed and the percentages of CAR+ cells were normalized to the sample with the lowest transduction efficiency (i.e. 20% CAR+) by adding non-transduced T cells. Cells were either left untreated, or treated with 500 ng/ml of AP1903, and in the absence of exogenous cytokines (unless specified in the case of positive controls) or target cells for 2 weeks. As positive controls, CAR T cells were alternatively supplemented with either exogenous recombinant IL-7 or IL-2 (10 ng/mL each; Miltenyi). […] At the end of the 2-week culture, the memory and exhaustion phenotypes of surviving CAR T cells were determined. Briefly, duplicate samples from each culture condition cells were harvested and stained using the Zombie NIR Fixable Viability Kit (Biolegend). […]

- Stat5 reporter activity ([1]; FIG. 37C): induced Stat5 and Stat4 activation
- Stat4 reporter activity ([1]; FIG. 37D): induced Stat5 and Stat4 activation
Molecule: BAFF: soluble BAFF trimers, TNF superfamily ligand

- downstream Stat activation [2]: induced downstream Stat activation
Molecule: APRIL: soluble APRIL trimers, TNF superfamily ligand

Molecule: CC[C@H](C(=O)N1CCCC[C@H]1C(=O)O[C@H](CCc1ccc(OC)c(OC)c1)c1cccc(OCC(=O)NCCNC(=O)COc2cccc([C@@H](CCc3ccc(OC)c(OC)c3)OC(=O)[C@@H]3CCCCN3C(=O)[C@@H](CC)c3cc(OC)c(OC)c(OC)c3)c2)c1)c1cc(OC)c(OC)c(OC)c1 [AP1903]
- binding affinity to FKBP12 containing the F36V mutation [3]: high affinity; also recorded: much higher affinity than wild-type FKBP12
- AP1903 concentration sufficient to reach the level of expansion achieved by exogenous cytokine supplementation (CAR T cells [4]): ≤ 1 ng/mL

Molecule: CD8 SS-Myc-FKBP(F36V)-EpoR(237-508; L241G, L242P)-V5: inducible chimeric cytokine receptor
- STAT5 reporter signaling with ligand (STAT5): closest to the EpoR(1-508) positive control; also recorded: robust activity

Molecule: IL12Rb2small(775-825): FKBP switch (Example 16) bearing the IL12Rb2small(775-825) cytotail (SDPKPENPACPWTVLPAGDLPTHDGYLPSNIDDLPSHEAPLADSLEELEPQ; also: FKBP switch fusion; UniProt Q99665 775-825, looked up, fragment)
- cytokine release on Day 5 of AP1903-driven growth (CAR T cells [5]): secrete elevated amounts of pro-inflammatory cytokines
- Stat4 reporter activation (STAT4): activating Stat4
- CAR T cell cytotoxicity in the presence of AP1903 [6]: enhances CART cell cytotoxic potency
- IL-10 secretion (CAR T cells [7]; AP1903, FIG. 41A): increased IL-10 secretion
- pro-inflammatory cytokine release in the presence of AP1903 (CAR T cells [7]; IL-17A/F, IL-21, TNFa and IFNg, FIG. 41A): released elevated amounts of pro-inflammatory cytokines

B1: IL-7: exogenous recombinant IL-7 (Miltenyi), positive control (protein, UniProt P13232 26-177, looked up)
Interleukin-7: DCDIEGKDGKQYESVLMVSIDQLLDSMKEIGSNCLNNEFNFFKRHICDANKEGMFLFRAARKLRQFLKMNSTGDFDLHLLKVSEGTTILLNCTGQVKGRKPAALGEAQPTKSLEENKSLKEQKKLNDLCFLKRLLQEIKTCWNKILMGTKEH
- percentage of CAR+ cells (CAR T cells [8]): ~20%
